Drawing on patent US12404260B2, “Pyridine rings containing derivatives as MALT1 inhibitors” (Janssen Pharmaceutica NV, priority 2019, dated 2025), this text covers IC50 for 32 compounds.

For experiment [1], the target named is T1, full-length MALT1 protein (Strep-MALT1(1-824)-His) (Homo sapiens, UniProt Q9UDY8).
T1 construct: full-length MALT1 protein (Strep-MALT1(1-824)-His) purified from baculovirus-infected insect cells; Strep (N); His (C); made in house; host or cells: baculovirus-infected insect cells
T1 sequence (Q9UDY8 1-824): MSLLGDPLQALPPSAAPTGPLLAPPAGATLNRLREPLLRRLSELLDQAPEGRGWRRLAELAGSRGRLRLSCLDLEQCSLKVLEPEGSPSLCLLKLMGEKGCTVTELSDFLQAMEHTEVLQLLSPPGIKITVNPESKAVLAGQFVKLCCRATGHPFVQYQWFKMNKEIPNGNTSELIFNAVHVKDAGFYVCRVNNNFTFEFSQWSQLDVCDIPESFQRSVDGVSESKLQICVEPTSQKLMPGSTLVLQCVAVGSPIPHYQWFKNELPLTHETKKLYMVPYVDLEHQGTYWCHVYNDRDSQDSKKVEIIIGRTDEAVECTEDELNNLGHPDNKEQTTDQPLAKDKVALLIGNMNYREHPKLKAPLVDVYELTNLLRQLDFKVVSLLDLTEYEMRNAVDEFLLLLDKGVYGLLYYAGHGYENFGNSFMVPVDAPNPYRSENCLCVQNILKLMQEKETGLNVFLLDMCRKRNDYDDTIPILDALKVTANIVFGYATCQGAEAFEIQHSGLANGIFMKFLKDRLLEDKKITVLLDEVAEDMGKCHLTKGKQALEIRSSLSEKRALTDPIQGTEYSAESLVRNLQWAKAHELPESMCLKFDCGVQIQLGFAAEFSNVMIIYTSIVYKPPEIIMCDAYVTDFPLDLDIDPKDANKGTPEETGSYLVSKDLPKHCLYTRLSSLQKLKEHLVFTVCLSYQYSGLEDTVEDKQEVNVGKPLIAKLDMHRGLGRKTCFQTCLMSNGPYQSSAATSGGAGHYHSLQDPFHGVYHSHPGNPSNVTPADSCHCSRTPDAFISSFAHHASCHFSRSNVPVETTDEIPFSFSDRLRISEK
Kind of experiment: MALT1 Biochemical Protease Assay. The note with it: 10 nM FL MALT1, 200 μM Ac-LRSR-AMC, 50 min pre-incubation, 4 h at RT; read-out: MALT1_Biochemical activity (Ac-LRSR-amc) IC50. Put shortly:
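Full-length Strep-MALT1(1-824)-His from baculovirus-infected insect cells, 10 nM, preincubated with compound 50 min at RT; 200 μM Ac-LRSR-AMC (KM) in 50 mM Tris pH 7.5, 0.6 M citrate, 1 mM DTT, 1 mM EDTA, 0.05% BSA, 1.5% DMSO. Fluorescence 355/460 nm, 4 h minus time 0; 11-point 1:3 series 30 μM–0.5 nM, IC50 with Hill slope.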

Experiment [2] deals with secretion of IL10 by OCI-LY3 ABC-DLBCL cells. Kind of experiment: Human IL10 Mesoscale assay (OCI-LY3). It is filed as cell-based. The note with it: 24 h incubation, IL10 in supernatant. As to the method: (§1) NFKB signaling regulates the secretion of multiple cytokines, including IL6 and IL10. Secretion of the cytokines IL6 and IL10 by OCI-LY3 ABC-DLBCL cells was measured using a mesoscale assay. Inhibition of NFKB signaling by MALT1 inhibitors results in a decrease of IL6/10 secretion.
(§2) OCI-LY3 cells were propagated in RPMI-1640 (Sigma Aldrich) supplemented with 10% fetal bovine serum (HyClone), 1 mM sodium pyruvate (Invitrogen), 2 mM L-glutamine (Sigma Aldrich) and 1% PenStrep (Sigma Aldrich). Cell passage number should not exceed 30. Cells should be kept between 0.5-2.5 million cells per mL during culturing and cells should be supplemented every 2-3 days with fresh 50 μM beta-mercaptoethanol. No beta-mercaptoethanol was used during the mesoscale assay.
(§3) For the Mesoscale assay, 100,000 OCI-LY3 cells were seeded per well into black-colored 96-well plates with clear bottom (Corning #3904) and test compounds were added in 9 dilution steps (1:2) ranging from 15 μM to 58.6 nM (final DMSO concentration 0.3%). DMSO control wells were used to determine the maximum signal (High Control (HC)). Treatment with the BTK inhibitor RN486 in a dose range from 30 nM to […] (9 dilutions of 1:2) served as a positive control for NFKB pathway inhibition and was used to determine the maximum inhibition (Low Control (LC)). Compounds and cells were incubated for 24 h at 37° C. and 5% CO2 (assay volume is 150 μL). After 24 h of incubation 50 μL of the supernatant was transferred to a MSD plate (V-Plex Proinflammation Panel 1 (human) kit, Mesoscale (MSD)) and incubated for 2 h with vigorous shaking (600 rpm) at room temperature. Following incubation, plates were washed 3× with PBS+0.05% Tween-20 and 25 μL detection antibody solution (IL6 & IL10 antibodies in diluent 3 (MSD)) was added per well followed by 2 h of incubation with vigorous shaking (600 rpm) at room temperature. After 3× washes with PBS+0.05% Tween-20, plates were incubated with 150 μL 2× Read Buffer T and read on SECTOR imager.

In experiment [3] the test system is secretion of IL6 by OCI-LY3 ABC-DLBCL cells. The experiment in a line: Human IL6 Mesoscale assay (OCI-LY3). It is filed as cell-based. The note with it: 24 h incubation, IL6 in supernatant. As to the method:
as §1, §2, §3

What is called IC50 is the concentration that gives 50% inhibition. On to `CCOC(=O)c1cncc(NC(=O)Nc2cnc(-n3nccn3)c(Cl)c2)c1[C@@H](C)OC` [Co. 36], for which the IC50 was 230 nM in experiment [1], 140 nM in experiment [2] and 220 nM in experiment [3].
The matching figures for `CCOC(=O)c1cncc(NC(=O)Nc2cnc(-n3nccn3)c(Cl)c2)c1[C@H](C)OC` [Co. 37]: 1480 nM, 1660 nM and 2750 nM.
The matching figures for `COC(C)c1c(NC(=O)Nc2cnc(-n3nccn3)c(Cl)c2)cnc(C)c1Br` (stereo not drawn) [Co. 40]: 50 nM, 80 nM and 100 nM.
The matching figures for `COc1c(C)ncc(NC(=O)Nc2cnc(-n3nccn3)c(Cl)c2)c1[C@@H](C)OC` [Co. 42]: 540 nM, 980 nM and 1100 nM.
In the case of `COc1c(C)ncc(NC(=O)Nc2cnc(-n3nccn3)c(Cl)c2)c1[C@H](C)OC` [Co. 43], the IC50 was 12000 nM in experiment [1], over 15000 nM in experiment [2] and over 15000 nM in experiment [3].
Turning to `CO[C@H](C)c1c(NC(=O)Nc2cnc(-n3nccn3)c(Cl)c2)cnc(C)c1Br` [Co. 45], the IC50 in experiment [1] stood at 20 nM; in experiment [2] it was 50 nM; in experiment [3] it was 60 nM.
The matching figures for `CO[C@@H](C)c1c(NC(=O)Nc2cnc(-n3nccn3)c(Cl)c2)cnc(C)c1Br` [Co. 46]: 580 nM, 850 nM and 750 nM.
The matching figures for `CO[C@H](C)c1c(NC(=O)Nc2cnc(C3CC3)c(C(F)(F)F)c2)cnc(C)c1Br` [Co. 52]: 1020 nM, 710 nM and 1450 nM.
For the compound `CO[C@@H](C)c1c(NC(=O)Nc2cnc(C3CC3)c(C(F)(F)F)c2)cnc(C)c1Br` [Co. 53], the IC50 in experiment [1] is over 30200 nM; in experiment [2] it was over 15000 nM; in experiment [3] it was over 15000 nM.
For `CO[C@H](C)c1c(NC(=O)Nc2cnc(C3CC3)c(Cl)c2)cnc(C)c1Br` [Co. 55], the IC50 in experiment [1] was 110 nM; in experiment [2], 210 nM; in experiment [3], 580 nM.
As to `CO[C@@H](C)c1c(NC(=O)Nc2cnc(C3CC3)c(Cl)c2)cnc(C)c1Br` [Co. 56], the IC50 in experiment [1] is 2510 nM; in experiment [2] it was 9330 nM; in experiment [3], over 15000 nM.
As to `CO[C@H](C)c1c(NC(=O)Nc2cnc(-n3nccn3)c(C(F)(F)F)c2)cnc(C)c1Br` [Co. 58], the 50% inhibitory concentration (IC50) is 200 nM in experiment [1], 300 nM in experiment [2] and 760 nM in experiment [3].
The corresponding values for `CO[C@@H](C)c1c(NC(=O)Nc2cnc(-n3nccn3)c(Cl)c2)cnc(C)c1C#N` [Co. 61] are 40 nM, 90 nM and 130 nM.
The corresponding values for `CO[C@H](C)c1c(NC(=O)Nc2cnc(-n3nccn3)c(Cl)c2)cnc(C)c1C#N` [Co. 62] are 220 nM, 450 nM and 750 nM.
The matching figures for `CO[C@H](C)c1c(NC(=O)Nc2ccnc(C(F)(F)F)c2)cnc(C)c1Cl` [Co. 64]: 170 nM, 190 nM and 680 nM.
As to `CO[C@H](C)c1c(NC(=O)Nc2cnc(C3CC3)c(C(F)(F)F)c2)cnc(C)c1Cl` [Co. 67], the figures for the IC50 in experiment [1], in experiment [2] and in experiment [3] were 1950 nM, 1780 nM and 4170 nM, respectively.
The matching figures for `CO[C@@H](C)c1c(NC(=O)Nc2cnc(OC(F)F)c(Cl)c2)cnc(C)c1C#N` [Co. 70]: 50 nM, 30 nM and 60 nM.
The matching figures for `CO[C@@H](C)c1c(NC(=O)Nc2cnc(OC(F)F)c(Cl)c2)cnc(C)c1Cl` [Co. 73]: 80 nM, 60 nM and 110 nM.
With `CO[C@H](C)c1c(NC(=O)Nc2cnc(OC(F)F)c(Cl)c2)cnc(C)c1Cl` [Co. 74], the concentration for half-maximal inhibition (IC50) in experiment [1] amounted to 1350 nM; in experiment [2], 650 nM; in experiment [3], 930 nM.
`COc1ncc(NC(=O)Nc2cnc(C)c(Cl)c2[C@H](C)OC)cc1C#N` [Co. 76]: the IC50 in experiment [1] was determined as 160 nM; in experiment [2], 110 nM; in experiment [3] it was 130 nM.
For the compound `COc1ncc(NC(=O)Nc2cnc(C)c(Cl)c2[C@@H](C)OC)cc1C#N` [Co. 77], the IC50 turned out to be 8320 nM in experiment [1], 6030 nM in experiment [2] and 7590 nM in experiment [3].
The corresponding values for `COc1nc(-n2nccn2)c(Cl)cc1NC(=O)Nc1cnc(C)c(C#N)c1[C@@H](C)OC` [Co. 79] are 20 nM, 60 nM and 110 nM.
The matching figures for `COc1nc(-n2nccn2)c(Cl)cc1NC(=O)Nc1cnc(C)c(C#N)c1[C@H](C)OC` [Co. 80]: 50 nM, 90 nM and 150 nM.
The corresponding values for `COc1nc(-n2nccn2)c(Cl)cc1NC(=O)Nc1cnc(C)c(Cl)c1[C@@H](C)OC` [Co. 82] are 50 nM, 90 nM and 120 nM.
On to `COc1nc(-n2nccn2)c(Cl)cc1NC(=O)Nc1cnc(C)c(Cl)c1[C@H](C)OC` [Co. 83], for which the IC50 in experiment [1] was 350 nM; in experiment [2], 180 nM; in experiment [3], 500 nM.
The matching figures for `COc1nc(-n2nccn2)c(Cl)cc1NC(=O)Nc1cnc(C)c(Br)c1[C@@H](C)OC` [Co. 85]: 30 nM, 50 nM and 100 nM.
The corresponding values for `CO[C@H](C)c1c(NC(=O)Nc2cc(Cl)c(-n3nccn3)nc2C)cnc(C)c1C#N` [Co. 88] are 100 nM, 170 nM and 290 nM.
On to `CO[C@@H](C)c1c(NC(=O)Nc2cc(Cl)c(-n3nccn3)nc2C)cnc(C)c1C#N` [Co. 89], for which the IC50 in experiment [1] worked out at 110 nM; in experiment [2], 160 nM; in experiment [3], 250 nM.
The matching figures for `CO[C@H](C)c1c(NC(=O)Nc2cnc(-n3nccn3)c(C#N)c2)cnc(C)c1Br` [Co. 91]: 20 nM, 50 nM and 90 nM.
The corresponding values for `CO[C@@H](C)c1c(NC(=O)Nc2cnc(-n3nccn3)c(C#N)c2)cnc(C)c1Br` [Co. 92] are 690 nM, 1510 nM and 3020 nM.
The matching figures for `COc1ncc(NC(=O)Nc2cnc(C)c(Br)c2[C@H](C)OC)cc1C#N` [Co. 97]: 80 nM, 90 nM and 140 nM.
On to `CO[C@H](C)c1c(NC(=O)Nc2cnc(-n3nccn3)c(C(F)(F)F)c2)cnc(C)c1C#N` [Co. 100], for which the IC50 in experiment [1] turned out to be 30 nM; in experiment [2] it was 60 nM; in experiment [3], 90 nM.
